Several values for one entry are separate records, joined by “and”; a condition that tells them apart may be missing. Equal values may be shown once. Inconclusive results and toxic doses are left out. Rule as the data show it: active = T/C of 150% or more; inactive = T/C below 125%.
Test system: L1210 leukemia ip in BDF1 mice, survival T/C
Test: NCI In Vivo Anticancer Drug Screen. Data for tumor model L1210 Leukemia (intraperitoneal) in B6D2F1 (BDF1) mice
Conditions: endpoint: mean survival time, higher = longer survival
Method in brief: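 Ratio derived from survival: compound-dosed mice over vehicle-dosed mice, all bearing a transplantable tumor.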

[1] = dose: 75.0 mg/kg/injection, schedule: Q01DX001 (ip), vehicle: saline
[2] = dose: 50.0 mg/kg/injection, schedule: Q01DX009 (ip), vehicle: saline
[3] = dose: 100.0 mg/kg/injection, schedule: Q01DX001 (ip), vehicle: saline
[4] = dose: 100.0 mg/kg/injection, schedule: Q01DX009 (ip), vehicle: saline
[5] = dose: 200.0 mg/kg/injection, schedule: Q01DX001 (ip), vehicle: saline
[6] = dose: 100.0 mg/kg/injection, schedule: Q04DX002 (ip), vehicle: saline
[7] = dose: 200.0 mg/kg/injection, schedule: Q01DX009 (ip), vehicle: saline
[8] = dose: 100.0 mg/kg/injection, schedule: Q01DX001 (ip), vehicle: saline with Tween-80
[9] = dose: 100.0 mg/kg/injection, schedule: Q01DX005 (ip), vehicle: saline
[10] = dose: 200.0 mg/kg/injection, schedule: Q01DX005 (ip), vehicle: saline
[11] = dose: 100.0 mg/kg/injection, schedule: Q01DX009 (ip), vehicle: saline with Tween-80
[12] = dose: 100.0 mg/kg/injection, schedule: Q04DX003 (ip), vehicle: saline with Tween-80
[13] = dose: 200.0 mg/kg/injection, schedule: Q04DX003 (ip), vehicle: saline with Tween-80

Measured: T/C

CCOC(=O)CCC(NC(=O)c1ccc(N(C)S(=O)(=O)c2ccc(C)cc2)c(F)c1)C(=O)OCC (stereo unspecified)
inactive: [1] 100 % of control | dose: 75.0 mg/kg/injection, schedule: Q04DX003 (ip), vehicle: saline 103 % of control | dose: 150.0 mg/kg/injection, schedule: Q01DX001 (ip), vehicle: saline 98 % of control | dose: 150.0 mg/kg/injection, schedule: Q04DX003 (ip), vehicle: saline 95 % of control | dose: 300.0 mg/kg/injection, schedule: Q01DX001 (ip), vehicle: saline 96 % of control | dose: 300.0 mg/kg/injection, schedule: Q04DX003 (ip), vehicle: saline 103 % of control

Nc1nccnc1N
inactive: [2] 103 % of control | [3] 102 % of control | [4] 105 % of control | [5] 96 % of control

CCCC#CC(=O)OCCCCCC
inactive: [6] 96 % of control | dose: 200.0 mg/kg/injection, schedule: Q04DX002 (ip), vehicle: saline 111 % of control | dose: 400.0 mg/kg/injection, schedule: Q04DX002 (ip), vehicle: saline 103 % of control

O=C(CC(C(=O)O)N1CCOCC1)c1ccccc1 (stereo unspecified)
inactive: dose: 50.0 mg/kg/injection, schedule: Q01DX009 (ip), vehicle: saline sonified 99 % of control | dose: 100.0 mg/kg/injection, schedule: Q01DX009 (ip), vehicle: saline sonified 97 % of control | dose: 100.0 mg/kg/injection, schedule: Q04DX003 (ip), vehicle: Klucel (hydroxypropylcellulose) (HPC) 97 % of control | dose: 200.0 mg/kg/injection, schedule: Q01DX009 (ip), vehicle: saline sonified 97 % of control | dose: 200.0 mg/kg/injection, schedule: Q04DX003 (ip), vehicle: Klucel (hydroxypropylcellulose) (HPC) 92 % of control

CC12CCCCC1CC(=O)CC2 (stereo unspecified)
inactive: dose: 100.0 mg/kg/injection, schedule: Q04DX002 (ip), vehicle: saline with Tween-80 99 % of control | dose: 200.0 mg/kg/injection, schedule: Q04DX002 (ip), vehicle: saline with Tween-80 86 % of control | dose: 400.0 mg/kg/injection, schedule: Q04DX002 (ip), vehicle: saline with Tween-80 96 % of control

COc1ccc2c(c1)CN(S(=O)(=O)c1ccc(C)cc1)CC/C2=N\O
inactive: [4] 94 % of control | [7] 94 % of control | dose: 400.0 mg/kg/injection, schedule: Q01DX009 (ip), vehicle: saline 104 % of control

CC(=O)Nc1ccc(Oc2ccc(NC(C)=O)cc2)cc1
inactive: dose: 25.0 mg/kg/injection, schedule: Q04DX002 (ip), vehicle: saline 90 % of control | dose: 50.0 mg/kg/injection, schedule: Q04DX002 (ip), vehicle: saline 97 % of control | [6] 117 % of control

CCOC(=O)C[S][Sn]([Cl])([Cl])[S]CC(=O)OCC
inactive: [8] 100 % of control | dose: 200.0 mg/kg/injection, schedule: Q01DX001 (ip), vehicle: saline with Tween-80 92 % of control | dose: 400.0 mg/kg/injection, schedule: Q01DX001 (ip), vehicle: saline with Tween-80 87 % of control

O=CNc1ncnn1C(=S)NCc1ccccc1
inactive: [2] 105 % of control | [4] 111 % of control

O=c1[nH]cccc1CCc1ccccc1
inactive: [3] 103 % of control | [5] 105 % of control | dose: 400.0 mg/kg/injection, schedule: Q01DX001 (ip), vehicle: saline 111 % of control

COC(=O)C1OC(n2cnc3c(N)ncnc32)C2OC(C)(C)OC12 (stereo unspecified)
inactive: [9] 102 % of control | [10] 104 % of control

CC(=O)c1ccc2c(c1)N(CCCN1CCN(CCO)CC1)c1ccccc1S2
inactive: dose: 0.78 mg/kg/injection, schedule: Q01DX009 (ip), vehicle: saline 93 % of control and 120 % of control | dose: 1.5 mg/kg/injection, schedule: Q01DX009 (ip), vehicle: saline 106 % of control | dose: 1.56 mg/kg/injection, schedule: Q01DX009 (ip), vehicle: saline 105 % of control and 113 % of control | dose: 3.12 mg/kg/injection, schedule: Q01DX009 (ip), vehicle: Klucel (hydroxypropylcellulose) (HPC) 113 % of control | dose: 3.12 mg/kg/injection, schedule: Q01DX009 (ip), vehicle: saline 102 % of control and 104 % of control and 116 % of control | dose: 6.25 mg/kg/injection, schedule: Q01DX009 (ip), vehicle: saline 103 % of control and 104 % of control | dose: 6.25 mg/kg/injection, schedule: Q04DX003 (ip), vehicle: saline 98 % of control | dose: 12.5 mg/kg/injection, schedule: Q01DX009 (ip), vehicle: Klucel (hydroxypropylcellulose) (HPC) 96 % of control | dose: 12.5 mg/kg/injection, schedule: Q04DX003 (ip), vehicle: saline 115 % of control | dose: 25.0 mg/kg/injection, schedule: Q01DX009 (ip), vehicle: saline 98 % of control

CC(=O)Nc1ccc(/C=C/C(=O)c2ccc(Cl)cc2)cc1
inactive: [11] 102 % of control | [12] 100 % of control | dose: 200.0 mg/kg/injection, schedule: Q01DX009 (ip), vehicle: saline with Tween-80 89 % of control | [13] 87 % of control | dose: 400.0 mg/kg/injection, schedule: Q01DX009 (ip), vehicle: saline with Tween-80 91 % of control | dose: 400.0 mg/kg/injection, schedule: Q04DX003 (ip), vehicle: saline with Tween-80 90 % of control

C=CNC(=O)Oc1ccccc1
inactive: dose: 100.0 mg/kg/injection, schedule: Q01DX001 (ip), vehicle: other 96 % of control | dose: 200.0 mg/kg/injection, schedule: Q01DX001 (ip), vehicle: other 100 % of control | dose: 400.0 mg/kg/injection, schedule: Q01DX001 (ip), vehicle: other 91 % of control

CCCC(C(=O)OCCNC1CCCCC1)c1ccccc1 (stereo unspecified)
inactive: [1] 104 % of control

O=c1c2cccc3cccc(c32)c2nc3ccccc3n12
inactive: dose: 6.25 mg/kg/injection, schedule: Q01DX009 (ip), vehicle: saline with Tween-80 120 % of control | dose: 12.5 mg/kg/injection, schedule: Q01DX009 (ip), vehicle: saline with Tween-80 116 % of control | dose: 25.0 mg/kg/injection, schedule: Q01DX009 (ip), vehicle: saline with Tween-80 100 % of control | [12] 104 % of control | [13] 103 % of control

O=S1(=O)C=CCC1
inactive: dose: 50.0 mg/kg/injection, schedule: Q01DX001 (ip), vehicle: carboxymethylcellulose (CMC) 100 % of control | dose: 100.0 mg/kg/injection, schedule: Q01DX001 (ip), vehicle: carboxymethylcellulose (CMC) 94 % of control | [4] 96 % of control | dose: 100.0 mg/kg/injection, schedule: Q04DX003 (ip), vehicle: saline 100 % of control | dose: 200.0 mg/kg/injection, schedule: Q01DX001 (ip), vehicle: carboxymethylcellulose (CMC) 103 % of control | [7] 102 % of control | dose: 200.0 mg/kg/injection, schedule: Q04DX003 (ip), vehicle: saline 94 % of control | dose: 400.0 mg/kg/injection, schedule: Q04DX003 (ip), vehicle: saline 100 % of control

O=C(O)c1cc(Cl)cc2c1-c1ccc(Cl)cc1C2Br (stereo unspecified)
inactive: dose: 18.7 mg/kg/injection, schedule: Q01DX009 (ip), vehicle: carboxymethylcellulose (CMC) 96 % of control | dose: 75.0 mg/kg/injection, schedule: Q01DX001 (ip), vehicle: carboxymethylcellulose (CMC) 98 % of control | dose: 150.0 mg/kg/injection, schedule: Q01DX001 (ip), vehicle: carboxymethylcellulose (CMC) 91 % of control

CC(=O)OCC1OC(n2cnc(C(N)=O)c2N)C(OC(C)=O)C1OC(C)=O (stereo unspecified)
inactive: [9] 95 % of control | [10] 96 % of control

O=C1CC(c2ccccc2)(c2ccccc2)c2cc(-c3ccccc3)c(-c3ccccc3)cc21
inactive: dose: 100.0 mg/kg/injection, schedule: Q04DX002 (ip), vehicle: Klucel (hydroxypropylcellulose) (HPC) 106 % of control | dose: 200.0 mg/kg/injection, schedule: Q04DX002 (ip), vehicle: Klucel (hydroxypropylcellulose) (HPC) 103 % of control | dose: 400.0 mg/kg/injection, schedule: Q04DX002 (ip), vehicle: Klucel (hydroxypropylcellulose) (HPC) 95 % of control

CC[As](=O)(O)c1ccc([N+](=O)[O-])cc1
inactive: [8] 101 % of control

CCOC(=O)C/C(=N\Nc1ccc([N+](=O)[O-])cc1[N+](=O)[O-])c1ccccc1
inactive: dose: 100.0 mg/kg/injection, schedule: Q04DX003 (ip), vehicle: saline sonified 96 % of control | dose: 200.0 mg/kg/injection, schedule: Q04DX003 (ip), vehicle: saline sonified 96 % of control | dose: 400.0 mg/kg/injection, schedule: Q04DX003 (ip), vehicle: saline sonified 91 % of control

CCCCn1nnc2c(NCCc3cnc[nH]3)nc(N)nc21
inactive: dose: 50.0 mg/kg/injection, schedule: Q01DX009 (ip), vehicle: saline with Tween-80 93 % of control | [11] 95 % of control | [12] 89 % of control | [13] 89 % of control
